This note sets out measurements from ChEMBL document CHEMBL1149784, “Discovery of a new anilino-3H-pyrrolo[3,2-f]quinoline derivative as potential anti-cancer agent” (Eur J Med Chem, 2008).

The source made the active and inactive calls. The rule behind the calls is not given here.

As usually defined, the IC50 is the concentration that inhibits the measured activity by half. Read a low IC50 as greater potency.

Assay [1] deals with OVCAR-3. Description: Cell cycle arrest in human OVCAR-3 cells assessed as accumulation at S phase at 1 uM by flow cytometry. It counts as functional. For orientation: Flow cytometry measures light scatter and fluorescence of single cells or particles in a stream.
Assay [2] has as its system OVCAR-3. Description: Cell cycle arrest in human OVCAR-3 cells assessed as accumulation at G2/M phase at 1 uM by flow cytometry. The class given is functional.
Assay [3] has as its system OVCAR-3. Description: Cell cycle arrest in human OVCAR-3 cells assessed as accumulation at subG0 phase at 1 uM by flow cytometry. It counts as functional.
For assay [4], the system named is OVCAR-3. Put plainly: Cell cycle arrest in human OVCAR-3 cells assessed as accumulation at G0/G1 phase at 1 uM by flow cytometry. It counts as functional.
Another assay deals with HL-60. Description: Growth inhibition of human HL60 cells after 72 hrs by trypan blue assay. As to conditions: HL-60, 72 h. The class given is functional, cell-based.
For assay [5], the system named is OVCAR-3. Description: Cell cycle arrest in human OVCAR-3 cells assessed as accumulation at G0/G1 phase at 10 uM by flow cytometry. It counts as functional.
A short description of assay [6]: Growth inhibition of human JR8 cells after 72 hrs by trypan blue assay. The class given is functional, cell-based. The following applies: JR8, 72 h.
Assay [7] relates to OVCAR-3. Description: Cell cycle arrest in human OVCAR-3 cells assessed as accumulation at G2/M phase at 5 uM by flow cytometry. It counts as functional.
Assay [8] relates to OVCAR-3. Description: Cell cycle arrest in human OVCAR-3 cells assessed as accumulation at subG0 phase at 10 uM by flow cytometry. It counts as functional.
The target of assay [9] is DNA topoisomerase 2-alpha (Homo sapiens) (UniProt P11388). Put plainly: Inhibition of human recombinant topoisomerase 2 assessed as relaxation of supercoiled pBR322 DNA.
Sequence of DNA topoisomerase 2-alpha (Homo sapiens) (P11388 whole entry): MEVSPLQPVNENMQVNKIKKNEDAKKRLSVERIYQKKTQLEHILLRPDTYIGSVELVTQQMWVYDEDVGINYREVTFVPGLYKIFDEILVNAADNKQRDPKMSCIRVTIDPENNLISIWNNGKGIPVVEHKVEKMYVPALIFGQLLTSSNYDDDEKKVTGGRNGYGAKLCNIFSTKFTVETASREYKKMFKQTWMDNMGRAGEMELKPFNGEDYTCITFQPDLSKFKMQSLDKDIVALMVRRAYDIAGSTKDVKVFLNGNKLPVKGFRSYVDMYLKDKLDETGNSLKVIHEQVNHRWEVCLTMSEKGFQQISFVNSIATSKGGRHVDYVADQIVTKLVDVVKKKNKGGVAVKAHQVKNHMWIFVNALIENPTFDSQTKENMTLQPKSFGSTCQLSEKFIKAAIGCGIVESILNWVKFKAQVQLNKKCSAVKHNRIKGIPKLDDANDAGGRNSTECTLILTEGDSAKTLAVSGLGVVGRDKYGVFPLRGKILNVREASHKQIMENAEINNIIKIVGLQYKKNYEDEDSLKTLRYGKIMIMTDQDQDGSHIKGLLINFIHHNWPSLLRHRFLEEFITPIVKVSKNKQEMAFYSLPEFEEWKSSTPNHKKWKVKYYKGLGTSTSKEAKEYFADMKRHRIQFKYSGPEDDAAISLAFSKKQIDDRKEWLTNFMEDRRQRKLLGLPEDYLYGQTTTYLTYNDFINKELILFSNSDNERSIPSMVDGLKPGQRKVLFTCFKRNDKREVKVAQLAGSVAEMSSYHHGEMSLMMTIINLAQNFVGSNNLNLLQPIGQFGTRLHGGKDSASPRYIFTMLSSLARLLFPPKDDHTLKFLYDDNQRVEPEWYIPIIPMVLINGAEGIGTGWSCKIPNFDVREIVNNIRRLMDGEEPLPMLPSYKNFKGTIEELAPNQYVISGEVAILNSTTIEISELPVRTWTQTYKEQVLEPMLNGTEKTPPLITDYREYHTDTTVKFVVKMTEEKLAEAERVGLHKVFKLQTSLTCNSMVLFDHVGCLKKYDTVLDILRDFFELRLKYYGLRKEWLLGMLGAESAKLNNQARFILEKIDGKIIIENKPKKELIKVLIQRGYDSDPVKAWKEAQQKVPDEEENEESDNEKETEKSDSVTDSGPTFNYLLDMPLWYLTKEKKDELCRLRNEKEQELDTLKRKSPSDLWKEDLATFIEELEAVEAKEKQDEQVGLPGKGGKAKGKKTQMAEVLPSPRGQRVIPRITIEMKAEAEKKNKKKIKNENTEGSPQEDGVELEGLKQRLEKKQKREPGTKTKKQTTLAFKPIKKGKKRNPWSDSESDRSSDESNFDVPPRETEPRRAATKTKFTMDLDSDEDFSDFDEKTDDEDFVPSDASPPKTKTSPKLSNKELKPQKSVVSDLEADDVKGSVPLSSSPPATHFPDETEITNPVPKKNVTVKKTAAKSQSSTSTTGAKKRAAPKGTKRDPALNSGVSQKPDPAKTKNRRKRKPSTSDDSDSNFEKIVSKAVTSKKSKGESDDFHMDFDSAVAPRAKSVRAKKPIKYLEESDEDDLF
In assay [10] the test system is OVCAR-3. Put plainly: Cell cycle arrest in human OVCAR-3 cells assessed as accumulation at S phase at 10 uM by flow cytometry. The class given is functional.
For the next assay, the system named is HeLa. Description: Growth inhibition of human HeLa cells after 72 hrs by trypan blue assay. The class given is functional, cell-based.
Another assay relates to Salmonidae. Description: Binding affinity to Salmon testes DNA assessed as drug-DNA complex formation by linear flow dichroism method.
The test system of assay [11] is OVCAR-3. Description: Cell cycle arrest in human OVCAR-3 cells assessed as accumulation at G2/M phase at 10 uM by flow cytometry. The class given is functional.
The test system of assay [12] is OVCAR-3. Description: Growth inhibition of human OVCAR-3 cells after 72 hrs by trypan blue assay. The class given is functional, cell-based. The following applies: OVCAR-3, 72 h.
Assay [13] deals with OVCAR-3. Description: Cell cycle arrest in human OVCAR-3 cells assessed as accumulation at S phase at 5 uM by flow cytometry. It counts as functional.
Assay [14] concerns OVCAR-3. Description: Cell cycle arrest in human OVCAR-3 cells assessed as accumulation at G0/G1 phase at 5 uM by flow cytometry. It counts as functional.
Assay [15] has as its system OVCAR-3. Description: Cell cycle arrest in human OVCAR-3 cells assessed as accumulation at subG0 phase at 5 uM by flow cytometry. The class given is functional.
Assay [16] concerns OVCAR-3. Put plainly: Cell cycle arrest in human OVCAR-3 cells assessed as accumulation at G2/M phase at 16 uM by flow cytometry. It counts as functional.
Assay [17] has as its system OVCAR-3. Put plainly: Cell cycle arrest in human OVCAR-3 cells assessed as accumulation at G0/G1 phase at 16 uM by flow cytometry. The class given is functional.
Assay [18] deals with OVCAR-3. Put plainly: Cell cycle arrest in human OVCAR-3 cells assessed as accumulation at subG0 phase at 16 uM by flow cytometry. The class given is functional.
In assay [19] the test system is OVCAR-3. Put plainly: Cell cycle arrest in human OVCAR-3 cells assessed as accumulation at S phase at 16 uM by flow cytometry. The class given is functional.

As to `CC[C@]1(O)C[C@H]2CN(CCc3c([nH]c4ccccc34)[C@@](C(=O)OC)(c3cc4c(cc3OC)N(C=O)[C@H]3[C@@](O)(C(=O)OC)[C@H](OC(C)=O)[C@]5(CC)C=CCN6CC[C@]43[C@@H]65)C2)C1` [VINCRISTINE], the Activity with OVCAR-3 [1] was determined as 7.9%; with OVCAR-3 [2], 45.2%; in the assay with OVCAR-3 [3], 0.5%; with OVCAR-3 [4] it was 46.8%.

`CC(=O)c1ccc(Nc2ccnc3ccc4[nH]ccc4c23)cc1.Cl`: the IC50 in the assay with HL-60 was determined as 500 nM; in assay [6], 590 nM; with HeLa it was 3400 nM; with OVCAR-3 [12] it was 530 nM. In addition, the Activity with OVCAR-3 [5] was 24.5%; with OVCAR-3 [1], 9.4%; in the assay on OVCAR-3 [7], 57.8%; with OVCAR-3 [8], 0.5%; in [9], “Dose-dependent effect”; in the assay on OVCAR-3 [2] it was 31.4%. The Activity was 7.6% with OVCAR-3 [3]; 11.6% with OVCAR-3 [10]; 51.9% in the assay with OVCAR-3 [4]; 63.7% in the assay on OVCAR-3 [11]; 13.6% in the assay on OVCAR-3 [13]; 24.7% in the assay on OVCAR-3 [14]. Further, the Activity in the assay on OVCAR-3 [15] is listed as 4.3%. Moreover, the outcome with Salmonidae was Active.

As for `COc1cc(NS(C)(=O)=O)ccc1Nc1c2ccccc2nc2ccccc12` [AMSACRINE], the Activity with OVCAR-3 [16] was 41.3%; with OVCAR-3 [17] it was 44.7%; in the assay with OVCAR-3 [18] it was 1.8%; in the assay on OVCAR-3 [19], 12.7%.
